Values of other authors, collected in US20250333422A1, “AMORPHOUS BERBERINE WITH ENHANCED BIOAVAILABILITY” (Nature's Way Products, LLC, priority 2024, published 2025).
Structures can show the parent of a compound that is named as a salt.

Experiments:
[1] = berberine metabolites
[2] = not given; remark: listed apart in the source

SMILES | biological activities for antioxidative, hepatoprotective, and hypolipidemic effects [1] | further results
COc1ccc2cc3[n+](cc2c1OC)CCc1cc2c(cc1-3)OCO2 [Berberine, Berberine HCl] |  | share of dose that goes into the lower bowel unabsorbed (oral dose): 99%; bioavailability (standard crystalline berberine, oral): < 1%
COc1ccc2cc3[n+](cc2c1O)CCc1cc2c(cc1-3)OCO2 [berberrubine] | showed biological activities | 
COc1ccc2cc3[n+](cc2c1OC)CCc1cc(O)c(O)cc1-3 [demethyleneberberine] | showed biological activities | 
COc1ccc2c(c1OC)CN1CCc3cc4c(cc3C1=C2)OCO4 [dhBB, dihydroberberine] |  | bioavailability of berberine versus an oral dosage of standard berberine [2]: 5 times
COc1cc2c(cc1O)CC[n+]1cc3c(OC)c(OC)ccc3cc1-2 [jatrorrhizine] | showed biological activities | 
COc1c(O)ccc2cc3[n+](cc12)CCc1cc2c(cc1-3)OCO2 [thalifendine] | showed biological activities | 
